Experimental data reported in article PMC12336439 (Archiv Der Pharmazie, 2025).
Several values for one entry are separate records, joined by “and”; a condition that tells them apart may be missing. Equal entries are not always repeated. Entries after “also recorded” stand apart in the source; their conditions may differ.

What was measured:
Format in all cases: binding
USP7 [1] = molecular target: T1, USP7 (Homo sapiens, UniProt Q93009); assay: Differential scanning fluorimetry (DSF), melting temperature shift of USP7; details: 8 µM protein, 250 µM compound (1:31.25)
T1 construct: USP7 catalytic domain (USP7CD) (208‐560); made in house
T1 sequence (Q93009 with tags, fused parts or gaps): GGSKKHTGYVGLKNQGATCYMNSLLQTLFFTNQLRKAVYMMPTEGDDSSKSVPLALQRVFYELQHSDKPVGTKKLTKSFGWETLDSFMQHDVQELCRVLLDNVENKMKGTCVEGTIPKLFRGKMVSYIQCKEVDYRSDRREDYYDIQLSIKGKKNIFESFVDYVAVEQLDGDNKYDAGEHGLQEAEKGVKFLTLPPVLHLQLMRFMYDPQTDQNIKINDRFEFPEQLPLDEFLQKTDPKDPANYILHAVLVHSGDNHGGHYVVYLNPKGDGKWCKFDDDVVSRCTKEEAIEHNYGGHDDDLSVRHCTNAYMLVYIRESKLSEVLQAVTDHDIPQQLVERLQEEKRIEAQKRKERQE
Description: The influence of the synthesized compounds on the melting temperature (T m) of USP7 and its mutant USP7asoc (active site only cysteine) was investigated by DSF. USP7asoc only retains the catalytic Cys223 while all the other six cysteines are mutated to serine. DSF was selected for initial assessment since it is an efficient and rapid primary screening method readily available to our lab.
An important consideration when assessing covalent inhibitors is the time dependence of covalent target occupancy and thus potency, which is determined by the reaction kinetics of the covalent binding event. To allow for drawing conclusions on compounds with slower reaction kinetics, incubation times of 30 min, 4 h, and 24 h at 20°C were chosen for the DSF screen with USP7 (Table 1 and Figures 2 and 3). The threshold at which compounds were considered (de‐)stabilizers was defined at 0.5°C. In parallel, the intrinsic reactivity of a set of representative compounds was evaluated in a glutathione reactivity assay. […] Data obtained from the GSH reactivity studies are shown in Supporting Information S2: Table S2.1 and Figures S2.1–2.3.
The melting temperatures of USP7 and USP7asoc in the presence or absence of fragments were determined by DSF on a Qiagen Rotor‐Q Model‐5‐Plex HRM real‐time PCR instrument (Qiagen, Hilden, Germany). SYPRO Orange (Life Technologies Corporation, Eugene, OR, USA) was used as a fluorescent dye at a final concentration of 5x. The protein concentration was 8 µM, and the final compound concentration was 250 µM, corresponding to a protein‐to‐compound ratio of 1:31.25. All compounds were dissolved in dimethyl sulfoxide (DMSO) and the proteins in Tris buffer (25 mM Tris pH 8.0, 150 mM NaCl, 5 mM TCEP, 5% (v/v) DMSO). All measurements were performed after 30 min, 4 h, and 24 h of incubation and at least in triplicate. DSF experiments were carried out with a constant heating rate of 270°C/h. The temperature was ramped from 28°C to 60°C–70°C with excitation and emission filters set at 470 nm and 610 nm, respectively. The melting temperatures (T m) of USP7 and USP7asoc were determined from the maxima of the first derivatives of the melting curves in OriginPro2020 (OriginLab, Northampton, MA, USA). The ∆T m was calculated by subtraction of the T m of the protein sample with pure DMSO from the T m of the protein sample mixed with compound. Error propagation was used to average multiple runs for a compound. A compound was considered to be a hit if the shift in the ∆T m was at least 0.50°C [55].

[2] = molecular target: T2, USP7asoc (active site only cysteine) (Homo sapiens, UniProt Q93009, C300S/C315S/C334S/C478S/C488S/C510S); assay: Differential scanning fluorimetry (DSF), melting temperature shift of USP7asoc mutant; details: 8 µM protein, 250 µM compound (1:31.25)
T2 construct: (208‐560, C300/315/334/448/478/510S); made in house
T2 sequence (Q93009 with tags, fused parts or gaps C300S/C315S/C334S/C478S/C488S/C510S): as the sequence (Q93009 with tags, fused parts or gaps) above, with C96S, C111S, C130S, C274S, C284S, C306S counted along it
Description: USP7asoc only retains the catalytic Cys223 while all the other six cysteines are mutated to serine. DSF was selected for initial assessment since it is an efficient and rapid primary screening method readily available to our lab. […] An important consideration when assessing covalent inhibitors is the time dependence of covalent target occupancy and thus potency, which is determined by the reaction kinetics of the covalent binding event. To allow for drawing conclusions on compounds with slower reaction kinetics, incubation times of 30 min, 4 h, and 24 h at 20°C were chosen for the DSF screen with USP7 (Table 1 and Figures 2 and 3). The threshold at which compounds were considered (de‐)stabilizers was defined at 0.5°C. In parallel, the intrinsic reactivity of a set of representative compounds was evaluated in a glutathione reactivity assay. […] The expression and purification of USP7 catalytic domain (USP7CD) (208‐560) and USP7asoc (active site only cysteine) by using a pET24a(+)_HLT_USP7 construct were performed as previously described. […] For the USP7asoc, six of the seven cysteines are mutated to serines (208‐560, C300/315/334/448/478/510S). All utilized protein sequences are depicted in Supporting Information S2: Table S.3.1. The melting temperatures of USP7 and USP7asoc in the presence or absence of fragments were determined by DSF on a Qiagen Rotor‐Q Model‐5‐Plex HRM real‐time PCR instrument (Qiagen, Hilden, Germany). SYPRO Orange (Life Technologies Corporation, Eugene, OR, USA) was used as a fluorescent dye at a final concentration of 5x. The protein concentration was 8 µM, and the final compound concentration was 250 µM, corresponding to a protein‐to‐compound ratio of 1:31.25. All compounds were dissolved in dimethyl sulfoxide (DMSO) and the proteins in Tris buffer (25 mM Tris pH 8.0, 150 mM NaCl, 5 mM TCEP, 5% (v/v) DMSO). All measurements were performed after 30 min, 4 h, and 24 h of incubation and at least in triplicate. DSF experiments were carried out with a constant heating rate of 270°C/h. The temperature was ramped from 28°C to 60°C–70°C with excitation and emission filters set at 470 nm and 610 nm, respectively. The melting temperatures (T m) of USP7 and USP7asoc were determined from the maxima of the first derivatives of the melting curves in OriginPro2020 (OriginLab, Northampton, MA, USA). The ∆T m was calculated by subtraction of the T m of the protein sample with pure DMSO from the T m of the protein sample mixed with compound. Error propagation was used to average multiple runs for a compound. A compound was considered to be a hit if the shift in the ∆T m was at least 0.50°C [55].

USP7asoc = molecular target: T3, USP7asoc (Homo sapiens, UniProt Q93009, C300S/C315S/C334S/C478S/C488S/C510S); assay: Intact protein MS (UHPLC-ESI-MS), covalent modification of USP7asoc; details: 24 h incubation at 20°C, protein-to-compound ratio 1:31.25
T3 construct: (208‐560, C300/315/334/448/478/510S); made in house
T3 sequence (Q93009 with tags, fused parts or gaps C300S/C315S/C334S/C478S/C488S/C510S): as the sequence (Q93009 with tags, fused parts or gaps) above, with C96S, C111S, C130S, C274S, C284S, C306S counted along it
Description: The DSF results described above were validated by UHPLC‐ESI‐MS to verify possible covalent binding through a corresponding mass shift. Intact protein MS is an important screening method in irreversible‐covalent hit identification and is especially suitable for covalent fragment‐based drug discovery (FBDD). It allows for the identification of covalent binders by detecting covalent protein‐compound adducts, thus making use of the stability of the covalent bond. USP7 was prepared in Tris buffer (25 mM Tris pH 8.0, 150 mM NaCl, 5 mM TCEP) with a protein‐to‐compound ratio of 1:31.25 and 5% (v/v) DMSO. The protein‐compound mixtures were all incubated at 20°C for 24 h on a rotating shaker. The analysis of intact protein mass was carried out using UHPLC‐ESI‐MS measurements, with data acquisition and data analysis as previously described.

USP7 [3] = molecular target: T1, USP7; assay: Intact protein MS (UHPLC-ESI-MS), covalent modification of USP7; details: 24 h incubation at 20°C, protein-to-compound ratio 1:31.25
Description: The DSF results described above were validated by UHPLC‐ESI‐MS to verify possible covalent binding through a corresponding mass shift. Intact protein MS is an important screening method in irreversible‐covalent hit identification and is especially suitable for covalent fragment‐based drug discovery (FBDD). It allows for the identification of covalent binders by detecting covalent protein‐compound adducts, thus making use of the stability of the covalent bond.
USP7 was prepared in Tris buffer (25 mM Tris pH 8.0, 150 mM NaCl, 5 mM TCEP) with a protein‐to‐compound ratio of 1:31.25 and 5% (v/v) DMSO. The protein‐compound mixtures were all incubated at 20°C for 24 h on a rotating shaker. The analysis of intact protein mass was carried out using UHPLC‐ESI‐MS measurements, with data acquisition and data analysis as previously described.

SMILES	∆T m ± SD USP7 (USP7 [1]; 30 min incubation at 20°C)	∆T m ± SD USP7asoc ([2]; 30 min incubation at 20°C)	∆T m ± SD USP7asoc ([2]; 4 h incubation at 20°C)	∆T m ± SD USP7 (USP7 [1]; 4 h incubation at 20°C)	∆T m ± SD USP7 (USP7 [1]; 24 h incubation at 20°C)	∆T m ± SD USP7asoc ([2]; 24 h incubation at 20°C) [°C]	protein species in deconvoluted mass spectrum of USP7asoc (USP7asoc)	protein species in deconvoluted mass spectrum of USP7 (USP7 [3])
O=[N+]([O-])c1ccc(F)nc1Nc1cc2c(-c3cnn(CCO)c3)cccc2cn1 [7f, 2‐(4‐{3‐[(6‐Fluoro‐3‐nitropyridin‐2‐yl)amino]isoquinolin‐5‐yl}‐1H‐pyrazol‐1‐yl)ethan‐1‐ol]	0.00 ± 0.12 °C	0.48 ± 0.09 °C	–0.23 ± 0.08 °C				single‐arylated USP7 and USP7asoc as a main signal	single‐arylated USP7 and USP7asoc as a main signal
O=[N+]([O-])c1ccc(F)nc1Nc1cc2c(-c3ccc4ccccc4c3)cccc2cn1 [7g, N‐(6‐Fluoro‐3‐nitropyridin‐2‐yl)‐5‐(naphthalen‐2‐yl)isoquinolin‐3‐amine]	0.10 ± 0.12 °C	0.63 °C and 0.63 ± 0.07 °C	0.25 ± 0.10 °C	0.30 ± 0 °C	0.25 ± 0.09 °C	0.38 ± 0.06	mainly displayed the unmodified USP7 and USP7asoc species	mainly displayed the unmodified USP7 and USP7asoc species
O=[N+]([O-])c1ccc(F)nc1Nc1cc2c(-c3ccc(-c4cccnc4)cc3)cccc2cn1 [7h, N‐(6‐Fluoro‐3‐nitropyridin‐2‐yl)‐5‐[4‐(pyridin‐3‐yl)phenyl]isoquinolin‐3‐amine]	0.00 ± 0.12 °C	0.30 ± 0 °C	0.35 ± 0.09 °C	0.15 ± 0 °C	0.20 ± 0.09 °C	0.35 ± 0.04	the unmodified protein species was again dominant; also recorded: unmodified USP7 and USP7asoc as the main peak	the unmodified protein species was again dominant; also recorded: unmodified USP7 and USP7asoc as the main peak

Continued, in another order:

∆T m ± SD USP7 (USP7 [1]; 30 min incubation at 20°C)	∆T m ± SD USP7asoc ([2]; 30 min incubation at 20°C)	∆T m ± SD USP7asoc ([2]; 4 h incubation at 20°C)	∆T m ± SD USP7 (USP7 [1]; 4 h incubation at 20°C)	∆T m ± SD USP7 (USP7 [1]; 24 h incubation at 20°C)	∆T m ± SD USP7asoc ([2]; 24 h incubation at 20°C) [°C]	SMILES	protein species in deconvoluted mass spectrum of USP7asoc (USP7asoc)	protein species in deconvoluted mass spectrum of USP7 (USP7 [3])
	–0.30 ± 0 °C	0.35 ± 0.09 °C	–0.10 ± 0.09 °C	0.15 ± 0.09 °C	0.45 ± 0	Cn1ccc(-c2cccc3cnc(Nc4nc(Cl)ccc4[N+](=O)[O-])cc23)c1 [8b, N‐(6‐Chloro‐3‐nitropyridin‐2‐yl)‐5‐(1‐methyl‐1H‐pyrrol‐3‐yl)isoquinolin‐3‐amine]	only showed unmodified protein for USP7asoc	unmodified protein species was dominant with an additional smaller signal of the mono‐arylated species
–0.40 ± 0.09 °C			–0.15 ± 0 °C	–0.15 ± 0 °C		O=[N+]([O-])c1ccc(Cl)nc1Nc1cc2c(-c3cnn(C4CC4)c3)cccc2cn1 [8e, N‐(6‐Chloro‐3‐nitropyridin‐2‐yl)‐5‐(1‐cyclopropyl‐1H‐pyrazol‐4‐yl)isoquinolin‐3‐amine]	mainly showed signals for unmodified USP7 and USP7asoc	mainly showed signals for unmodified USP7 and USP7asoc
